In ChEMBL document CHEMBL1158611, “Trichoderins, novel aminolipopeptides from a marine sponge-derived Trichoderma sp., are active against dormant mycobacteria” (2010):
Values after ≈ are worked out from the molar mass of the structure shown. *1 amine or outer side, *2 acyl side, *3 side chain or, on linkers, in order; H or OH if unused. Where a SMILES comes first, the peptide text is derived from it. [ ]: non-standard residue; d: D form. The star is where a group is joined. X2 = CCC(=O)C[C@@H](O)C[C@@H](C)C[C@H](N[*:1])C(=O)[*:2]; X1 = CCC(=O)/C=C/C[C@@H](C)C[C@H](N[*:1])C(=O)[*:2]; Alaψ(CH2NMeCH2CH2OH) = C[C@@H](CN(C)CCO)N*; Decanoyl(2R-Me) = CCCCCCCC[C@@H](C)C(=O)*; Aib = CC(C)(N)C(=O)O

Columns and labels:
Type in all cases: functional
[1] = tested on: Mycolicibacterium smegmatis; test: Antimycobacterial activity against Mycobacterium smegmatis under dormancy-inducing hypoxic condition
[2] = tested on: Mycobacterium tuberculosis; test: Antimycobacterial activity against Mycobacterium tuberculosis H37Rv under aerobic condition
[3] = tested on: Mycobacterium tuberculosis; test: Antimycobacterial activity against Mycobacterium tuberculosis H37Rv under dormancy-inducing hypoxic condition
[4] = tested on: Mycolicibacterium smegmatis; test: Antimycobacterial activity against Mycobacterium smegmatis under aerobic condition

Structure (SMILES)	MIC [1] [µg/mL]	MIC [2] [µg/mL]	MIC [3] [µg/mL]	MIC [4] [µg/mL]
NNC(=O)c1ccncc1 [ISONIAZID]	25 (≈ 182 µM)	0.05 (≈ 0.365 µM)	> 100	2.5 (≈ 18.2 µM)
CCCCCCCC[C@@H](C)C(=O)N1CCC[C@H]1C(=O)N[C@@H](C[C@H](C)C/C=C/C(=O)CC)C(=O)NC(C)(C)C(=O)NC(C)(C)C(=O)N[C@H](C(=O)N[C@H](C(=O)NC(C)(C)C(=O)NC(C)(C)C(=O)N[C@@H](C)CN(C)CCO)C(C)C)[C@@H](C)CC [TRICHODERIN A1] ({Decanoyl(2R-Me)}-P[X1][Aib][Aib]IV[Aib][Aib]-{Alaψ(CH2NMeCH2CH2OH)})	1.56 (≈ 1.36 µM)	2 (≈ 1.75 µM)	2 (≈ 1.75 µM)	1.56 (≈ 1.36 µM)
CCCCCCCC[C@@H](C)C(=O)N1CCC[C@H]1C(=O)N[C@@H](C[C@H](C)C[C@H](O)CC(=O)CC)C(=O)NC(C)(C)C(=O)NC(C)(C)C(=O)N[C@H](C(=O)N[C@H](C(=O)NC(C)(C)C(=O)NC(C)(C)C(=O)N[C@@H](C)CN(C)CCO)C(C)C)[C@@H](C)CC [TRICHODERIN A] ({Decanoyl(2R-Me)}-P[X2][Aib][Aib]IV[Aib][Aib]-{Alaψ(CH2NMeCH2CH2OH)})	0.1 (≈ 0.0859 µM)	0.12 (≈ 0.103 µM)	0.12 (≈ 0.103 µM)	0.1 (≈ 0.0859 µM)
CCCCCCCC[C@@H](C)C(=O)N1CCC[C@H]1C(=O)N[C@@H](C[C@H](C)C[C@H](O)CC(=O)CC)C(=O)NC(C)(C)C(=O)NC(C)(C)C(=O)N[C@H](C(=O)N[C@H](C(=O)NC(C)(C)C(=O)NC(C)(C)C(=O)N[C@@H](C)CN(C)CCO)C(C)C)C(C)C [TRICHODERIN B] ({Decanoyl(2R-Me)}-P[X2][Aib][Aib]VV[Aib][Aib]-{Alaψ(CH2NMeCH2CH2OH)})	0.63 (≈ 0.548 µM)	0.13 (≈ 0.113 µM)	0.13 (≈ 0.113 µM)	0.63 (≈ 0.548 µM)
